Patent EP1488698A1, “Compositions for descreasing intracellular inositol trisphosphate concentration and uses thereof” (priority 1995, dated 1997)
Several values for one entry are separate records, joined by “and”; a condition that tells them apart may be missing. Equal entries are not always repeated. Marks after values point to notes of the source that are not given here.

What was measured:
[1] = tested on: primary chick cortical neurons; assay: Phosphoinositide hydrolysis assay (InsP3 production) in cultured primary cortical neurons; assay type: cell-based; conditions: for Ins-P-n with Lysosphinogolipid Modulator, agonist Aspartate: 100 μM Aspartate, 20 min, neurons preincubated with 20 μM modulator (or 20 μM + 20 μM Sphingosine), washed, normalized to control = 1.00; for enhancement of InsP3 level caused by sphingosine or by metabotropic glutamate receptor agonists / InsP3 signalling: cortical neurons; for InsP3 signalling: as shown in Table 1
Description: The neurons were seeded in 24-well plastic tissue culture plates that had been coated with L-polylysine.
Receptor-stimulated and basal unstimulated hydrolysis of phosphoinositides was measured by the following procedure. […] The cells were then washed twice with 1 ml Dulbecco's phosphate-buffered saline (PBS) and 0.5 ml of PBS containing 4.5 g/L glucose was added. Sphingosine, psychosine, lysosulphatide, or lysosphingomyelin, prepared as the hydrochloride salt dissolved in water, were then added to produce the desired extracellular concentration in specific wells, […] The cells were then washed twice with 1 ml PBS, and pre-incubated for 15 minutes at 37°C with 0.5 ml PBS containing 10 mM LiCl and the compound to be tested was added. […] The tubes were vortexed thoroughly, then centrifuged at 500 x g for 5 minutes to separate the aqueous and chloroform phases. For each sample, a 1.5-ml aliquot of the upper (aqueous) phase was applied to a small column containing BioRad AG1X8 resin (formate form). Free [^3H]inositol and [^3H]glycerophosphoinositol were washed through the column with 5 ml of a solution containing 5 mM sodium borate and 60 mM sodium formate. The total phosphorylated [^3H] inositol fraction was eluted from the column for radiometric scintillation spectrometry analysis with 3 ml 1.0 M ammonium formate/0.1 M formic acid.
(§1) In addition, a 0.5 ml aliquot of the lower (chloroform) phase of each sample was analyzed radiometrically by scintillation spectrometry in order to determine the quantity of lipid-bound [^3H]myo-inositol. Estimation of phosphoinositide hydrolysis by phospholipase C is based upon the quantity of [^3H]inositol phosphates produced, and is expressed as the percentage of the latter relative to total free and componential [^3H]inositol (dpm ammonium formate + dpm chloroform fractions).

male F344 rats = assay: Behavioral analysis after ICV infusion (quisqualate excitotoxicity model); assay type: in vivo; conditions: for effective dose (to prevent or reverse quisqualate effects): pilot testing, the higher doses appeared to be more reliable; for number of convulsions or spasms: pretreatment with Psychosine (125 nmoles) or Lysosphingomyelin (125 nmoles and 150 nmoles) ICV 30 minutes before quisqualate 225 nmoles, n = 6 per group, Fig. 8; for convulsant behavior, compound alone: psychosine at 125 nmoles, lysosphingomyelin at 125 nmoles and 150 nmoles, ICV without quisqualate; for behavioral and histological changes caused by quisqualate: rats pretreated with 125 nmoles of the lysosphingolipid; for BEHAVIORAL RESPONSE: 30 minutes prior to quisqualate
Description: The animals used in this experiment were male F344 rats (Charles River Breeding Laboratories). The animals were housed individually, exposed to a 12-hour light-dark cycle, and allowed free access to food and water. The animals weighed approximately 250 g at the beginning of each experiment and were weighed daily. In addition, the animals were habituated to handling before each experiment.
Before administering various compounds, the animals were anesthetized with sodium pentobarbital (50 mg/kg, i.p.) and positioned in a sterotaxic instrument. A 26 gauge cannula was inserted into the cerebral ventricle at the following co-ordinates: 1.0 mm posterior to bregma, 1.5 mm lateral to the midline, and 4.0 mm below the dorsal surface of the neocortex. Cannulas were capped and fixed in place with dental cement. One week after cannulation, 10 µl of each of the treatment drugs was infused, ICV (i.e. into the ventricals of the brain), via a micropump at a rate of 10 µl/min. For this procedure, the animals were lightly restrained and unanesthetized. Following administration of the compound, the infusion cannula remained in position for one minute, after which the permanent in situ cannula was capped.
The compounds administered were obtained from a commercial supplier (Sigma Chemical Co., St. Louis, MO) and dissolved in saline prior to injection. These compounds included quisqualate (injected at doses ranging from 100 nmole/10 µl to 1 µmole/10 µl), lysocerebroside, and lysophingomyelin (which were injected at doses of 25 nmoles/10 µl to 150 nmoles/10 µl).
Pilot studies identified several specific behavioral measures that could be used to indicate excessive activation of the metabotropic receptor (see Table 3). […] The experiments that follow were based on an analysis of these behaviors over a two hour period after administration of the compounds of the invention. Behavioral observation was carried out by two trained observers, who worked independently of one another and who were blind to the experimental groups. […] Frequency and duration means were computed by subtracting pre-infusion means from post-infusion means.
The experiment began one week after ICV cannulation. […] Following the baseline observation period, animals received the first of two ICV infusions (all infusions were of a 10 µl volume that was administered over a 1 minute period). For the first five groups listed above, this consisted of saline (10 µl/minute), for the following 3 groups the infusions were psychosine at 125 nmoles, lysosphingomyelin at 125 nmoles, or lysosphingomyelin at 150 nmoles, respectively. Thirty minutes later, all animals received the second infusion which, for the first five groups listed above, consisted of saline, quisqualate at 225 nmoles, psychosine at 125 nmoles, lysosphingomyelin at 125 nmoles, and lysosphingomyelin at 150 nmoles respectively. […] Following the second infusion animals were returned to their cages, and observed continuously over the subsequent 2 hours.

PC12 cells = assay: Phosphoinositide hydrolysis assay (InsP3 production) in PC12 cells; assay type: cell-based, rat; conditions: for sensitivity of PC12 cells to bradykinin: even at relatively moderate levels
Text: PC12 cells, from a rat adrenal pheochromocytoma cell line, were used as a model of neurons from the peripheral nervous system. These cells were obtained from a common laboratory cell culture stock and grown in plastic culture flasks in Dulbecco's modified Eagle's medium (DMEM) supplemented with 5% heat-inactivated horse serum and 10% heat-inactivated fetal calf serum (PC12 cells are also available from the American Type Culture Collection under the Accession number CRL 1721). The cells were grown at 37°C in 5% CO2 in air until a confluent monolayer formed. The cells were dispersed into 24-well plastic tissue culture plates at a density of 10^5 cells per well and used for the phosphoinositide hydrolysis assays (as described in Example 2).
Receptor-stimulated and basal unstimulated hydrolysis of phosphoinositides was measured by the following procedure. In order to label the cellular phosphoinositides metabolically, the primary cultures of chick cortical neurons (described in Example 1) were incubated overnight with 0.5 ml Dulbecco's modified Eagle's medium containing 1 µCi [^3H]myo-inositol per well. The cells were then washed twice with 1 ml Dulbecco's phosphate-buffered saline (PBS) and 0.5 ml of PBS containing 4.5 g/L glucose was added. Sphingosine, psychosine, lysosulphatide, or lysosphingomyelin, prepared as the hydrochloride salt dissolved in water, were then added to produce the desired extracellular concentration in specific wells, and the 24-well plates were swirled gently on a rotary shaker for 1 hour at 23°C. The cells were then washed twice with 1 ml PBS, and pre-incubated for 15 minutes at 37°C with 0.5 ml PBS containing 10 mM LiCl and the compound to be tested was added. After 30 minutes, the experiment was terminated by adding 1 ml of ice-cold methanol to each well and transferring the material in each well to polypropylene tubes that contained 0.4 ml water and 1 ml chloroform. The tubes were vortexed thoroughly, then centrifuged at 500 x g for 5 minutes to separate the aqueous and chloroform phases. For each sample, a 1.5-ml aliquot of the upper (aqueous) phase was applied to a small column containing BioRad AG1X8 resin (formate form). Free [^3H]inositol and [^3H]glycerophosphoinositol were washed through the column with 5 ml of a solution containing 5 mM sodium borate and 60 mM sodium formate. The total phosphorylated [^3H] inositol fraction was eluted from the column for radiometric scintillation spectrometry analysis with 3 ml 1.0 M ammonium formate/0.1 M formic acid.
as §1

| Compound | Ins-P-n with Lysosphinogolipid Modulator, agonist Aspartate [1] | enhancement of InsP3 level caused by sphingosine or by metabotropic glutamate receptor agonists [1] | InsP3 signalling [1] | effective dose (to prevent or reverse quisqualate effects) (male F344 rats; ICV, rats) | number of convulsions or spasms (male F344 rats) | convulsant behavior, compound alone (male F344 rats) | behavioral and histological changes caused by quisqualate (male F344 rats; ICV) | InsP3 production (PC12 cells; PC12 cells, Fig 3) | sensitivity of PC12 cells to bradykinin (PC12 cells; Fig 3) | other results |
| --- | --- | --- | --- | --- | --- | --- | --- | --- | --- | --- |
| CCCCCCCCCCCCC/C=C/[C@@H](O)[C@@H](N)COP(=O)([O-])OCC[N+](C)(C)C [lysosphingomyelin, sphingosyl phosphorylcholine] | 1.00±0.06^e | blocked this enhancement | potently modulated InsP3 signalling | 125 nmol and 150 nmol | significantly (p<01) attenuated | displayed no convulsant behavior | absent | strongly inhibit | can entirely block | sedation (male F344 rats; Lysosphingomyelin 150 nmoles ICV, rats): mild sedation; behavioral or neurotoxic effects of the compounds (male F344 rats; doses as high as 125 nmoles per animal, ICV, rats): no behavioral or neurotoxic effects were observed; duration of teeth chattering, akinesia and mobilization, compared with quisqualate alone (male F344 rats; quisqualate 225 nmoles and lysophingomyelin 150 nmoles ICV, Fig. 9): quisqualate alone spent significantly (p< .01) more time engaged in these behaviors |
| CCCCCCCCCCCCC/C=C/[C@@H](O)[C@@H](N)CO [sphingosine] | – | – | potently modulated InsP3 signalling | – | – | – | – | – | – | basal, unstimulated InsP3 level in cortical neurons [1]: tonically enhanced; basal, unstimulated level of InsP3 production (PC12 cells; PC12 cells, Fig 3): tonically upregulated |
| CCCCCCCCCCCCC/C=C/[C@@H](O)[C@@H](N)CO[C@@H]1O[C@H](CO)[C@H](O)[C@H](O)[C@H]1O [psychosine] | 1.00±0.06^e | blocked this enhancement | potently modulated InsP3 signalling | 125 nmol | significantly (p<01) attenuated | displayed no convulsant behavior | absent | strongly inhibit | can entirely block | BEHAVIORAL RESPONSE (male F344 rats; Psychosine 25 nmoles + Quisqualate 200 moles, ICV): Moderate convulsions, teeth chattering, akinesia and hyperactivity; BEHAVIORAL RESPONSE (male F344 rats; Psychosine 50 nmoles + Quisqualate 200 moles, ICV): Moderate convulsions, teeth chattering, akinesia and hyperactivity; BEHAVIORAL RESPONSE (male F344 rats; Psychosine 100 nmoles + Quisqualate 200 nmoles, ICV): Almost complete attenuation of Quisqualate response, some teeth chattering post-injection; BEHAVIORAL RESPONSE (male F344 rats; Psychosine 100 nmoles + Quisqualate 250 nmoles, ICV): Moderate convulsions, teeth chattering, akinesia. Quisqualate markedly reduced compared to typical Quisqualate response at this dose.; BEHAVIORAL RESPONSE (male F344 rats; Psychosine 125 nmoles + Quisqualate 225 nmoles, ICV): Complete attenuation of Quisqualate response; BEHAVIORAL RESPONSE (male F344 rats; Psychosine 150 nmoles + Quisqualate 250 nmoles, ICV): Almost complete attenuation of Quisqualate response; BEHAVIORAL RESPONSE (male F344 rats; psychosine 125 moles + Quisqualate 200 moles, ICV): Complete attenuation of Quisqualate response; IC50 (PC12 cells; Rattus norvegicus, PC-12, 0.5 h, read-out: concentration sufficient to reduce a metabotropic response to bradykinin to half maximum): 50 µM |
